Entries after “also recorded” stand apart in the source; their conditions may differ.
System: cochlear Lgr5+ progenitor cells
Experiment: Expansion of Lgr5 cells in 3D culture, Lgr5-EGFP cells counted by flow cytometry
Type: cell-based, mice
Method: Neonatal Lgr5-EGFP-IRES-Cre-ER mice (The Jackson Laboratory, strain 8875) were used to analyze the effects of small molecules on cochlear stem cell expansion (see Barker et al., Nature 449, 1003-7 (2007). This strain allowed for visualization and quantification of EGFP cells.
All animal studies were conducted under an approved institutional protocol per National Institutes of Health guidelines. Using neonatal animals, cochleae were dissected and the organ of Corti (sensory epithelium) was separated from the stria vascularis (ion transport epithelium) and the modiolus (nerve tissue). Epithelia were then collected and treated with TrypLE for 15-20 minutes to obtain single cells. The cells were then filtered ([…]) and suspended in a Matrigel (Corning) dome for 3D culture seeded at 0.5 cochlea per well.
Expansion of Lgr5 Cells: Cells were cultured in a 3D system and bathed in a serum free 1:1 mixture of DMEM and F12, supplemented with Glutamax (GIBCO), N2, B27 (Invitrogen), EGF (50 ng/mL; Chemicon), bFGF (50 ng/mL; Chemicon), IGF-1 (50 ng/mL; Chemicon), and small molecules for seven days. Media was changed every other day. Treatments were run in triplicate or quadruplicate.
Quantification of Cell Proliferation: Lgr5 cells were quantified after 7-10 days. Cell colonies were dissociated into single cells using TrypLE. The cells were then stained with propidium iodide (PI) and analyzed using a flow cytometer to count Lgr5-EGFP cells. The percentage of viable Lgr5 cells was plotted against the concentration in GraphPad Prism.

**Q.** Which “expansion of cochlear Lgr5+ progenitor cells in culture” value (AS1842856 425 nM, background of EFI) does the source give for `CCn1cc(C(=O)O)c(=O)c2c(N)c(F)c(NC3CCCCC3)cc21` [AS1842856] here?
**A.** elicits the expansion

**Q.** What about the “enrichment of Lgr5 cells according to percentage” value (AS1842856 (425 nM) combined with VPA (1 mM), background of EFI) of the same molecule?
**A.** enriched according to percentage

**Q.** What about the “Lgr5-GFP colony formation (images of Lgr5+ cell culture)” value (EFI-AS1842856 alone) of the same molecule?
**A.** promotes Lgr5-GFP colony formation

**Q.** What about the “Lgr5-GFP colony enrichment (less Lgr5-negative cells in culture)” value (EFI-AS1842856 with VPA added) of the same molecule?
**A.** enriched when VPA is added

**Q.** What about the “concentration dependence of Lgr5+ cell growth, enrichment and expansion of cochlear progenitor cells” value (background of EFI, range of concentrations) of the same molecule?
**A.** enhances expansion of cochlear progenitor cells concentration-dependent manner; also recorded: concentration-dependent effects
